Experimental data reported in ChEMBL document CHEMBL1201862, “PubChem BioAssay data set” (2004).
Active and inactive are the calls of the source.

Key:
cells = format: functional
[1] = HEK-293T cell viability reduction – luminescence, B-cell screen hits, cytotoxicity control for BCR NF-kB inhibitor project, dose response (AID 489021); format: functional, cell-based;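 also: HEK-293T cells carrying an NF-kB luciferase reporter; cells exposed to compound for about 14 hours before viability readout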
[2] = biological target: Glyceraldehyde-3-phosphate dehydrogenase (Homo sapiens, UniProt P04406)
[3] = Luminescence Cell-Based Dose Confirmation HTS to Identify Activators of 5'UTR Stem-Loop Driven Alpha-Synuclein mRNA Translation in H4 Neuroglioblastoma Cells. [Related pubchem assays: 1829 (Project Summary), 1814 (Primary HTS)]; format: functional
BJ [4] = experiment: cells; format: functional, cell-based; details: Homo sapiens
[5] = DRD fibroblast viability loss – cell-based, non-viral oncogenic, luminescence, dose response (AID 1934); format: functional; details: Homo sapiens
BJ [6] = experiment: BJ-TERT-LT-ST fibroblast viability loss – cell-based, RAS-independent, luminescence, dose response (AID 1935); format: functional; details: Homo sapiens;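 also: BJ fibroblasts immortalized with TERT plus LT and ST oncogenes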
H4 = experiment: Luminescence Cell-Based Dose Response HTS to Identify Activators of 5'UTR Stem-Loop Driven Prion Protein mRNA Translation in H4 Neuroglioblastoma Cells. [Related pubchem assays: 1829 (Project Summary), 1814 (Primary HTS)]; format: functional; details: Homo sapiens
[7] = Luminescence Cell-Based Dose Response HTS to Identify Activators of Luciferase Translation or Activity in H4 […] Cells. [Related pubchem assays: 1829 (Project Summary), 1814 (Primary HTS)]; format: functional
BJ [8] = experiment: BJ-TERT fibroblast viability loss – cell-based, RAS-independent, luminescence, dose response (AID 1933); format: functional; details: Homo sapiens
[9] = reduced cellular PGC1a acetyl-lysine signal – cell-based, cherry-picked samples, dose response (AID 720514); format: functional;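 also: potency may reflect raised or lowered acetylation signal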
Protein RecA = biological target: T1, Protein RecA (Mycobacterium tuberculosis, UniProt P9WHJ3); experiment: Fluorescence Cell-Free Homogeneous Dose Retest to Identify Inhibitors of RecA-Intein Splicing Activity. [Related pubchem assays (depositor defined):AID2097, AID2223, AID489010, AID492950]; format: functional
T1 sequence (P9WHJ3 whole entry): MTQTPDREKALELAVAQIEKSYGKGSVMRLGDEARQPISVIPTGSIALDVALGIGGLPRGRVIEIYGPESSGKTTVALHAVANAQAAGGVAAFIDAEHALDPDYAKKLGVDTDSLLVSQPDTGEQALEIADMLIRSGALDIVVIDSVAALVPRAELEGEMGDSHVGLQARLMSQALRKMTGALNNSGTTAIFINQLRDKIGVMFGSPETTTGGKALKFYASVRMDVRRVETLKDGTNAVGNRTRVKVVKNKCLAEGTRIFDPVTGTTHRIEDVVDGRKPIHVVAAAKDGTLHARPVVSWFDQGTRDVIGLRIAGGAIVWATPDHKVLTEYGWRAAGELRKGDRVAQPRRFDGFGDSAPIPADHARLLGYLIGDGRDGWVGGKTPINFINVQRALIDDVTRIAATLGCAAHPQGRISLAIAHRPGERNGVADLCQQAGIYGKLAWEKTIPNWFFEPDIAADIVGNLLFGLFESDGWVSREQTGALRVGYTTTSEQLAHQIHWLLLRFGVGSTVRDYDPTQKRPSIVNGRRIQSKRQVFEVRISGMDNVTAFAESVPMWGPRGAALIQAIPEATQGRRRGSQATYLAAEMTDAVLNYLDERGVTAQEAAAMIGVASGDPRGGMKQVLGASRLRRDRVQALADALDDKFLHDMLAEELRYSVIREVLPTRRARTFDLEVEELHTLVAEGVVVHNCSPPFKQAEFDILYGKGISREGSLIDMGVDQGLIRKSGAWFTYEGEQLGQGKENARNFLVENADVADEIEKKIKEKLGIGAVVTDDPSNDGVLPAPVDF

[10] = toxicity toward HepG2 liver cells – cell-based, plate reader, cherry-pick, antagonist series, cytotoxicity control, dose response (AID 743416); format: functional
[11] = blockade of melanocortin 4 receptor signaling – cell-based, plate reader, cherry pick, counter-screen for LGR2 antagonist project, dose response (AID 743444); format: functional;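 also: transfected HEK 293 cells stimulated with alpha-MSH peptide; potency of inhibitors of the alpha-MSH evoked signal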
[12] = A549 cell cytotoxicity, dose response, cytotoxicity control, plate reader, cherry-pick, antagonist series (AID 743412); format: functional, cell-based
[13] = NIH3T3 cell viability loss – ATP luminescence, mouse fibroblasts, counter-screen, dose response (AID 2010); format: functional, cell-based;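 also: cells exposed to compound for about 90 hours before reading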
[14] = biological target: T2, Replicative DNA helicase DnaB (Mycobacterium tuberculosis, UniProt P9WMR3); experiment: DnaB intein splicing inhibitors, dose response, biochemical, cell-free fluorescence (AID 449749); format: functional
T2 sequence (P9WMR3 whole entry): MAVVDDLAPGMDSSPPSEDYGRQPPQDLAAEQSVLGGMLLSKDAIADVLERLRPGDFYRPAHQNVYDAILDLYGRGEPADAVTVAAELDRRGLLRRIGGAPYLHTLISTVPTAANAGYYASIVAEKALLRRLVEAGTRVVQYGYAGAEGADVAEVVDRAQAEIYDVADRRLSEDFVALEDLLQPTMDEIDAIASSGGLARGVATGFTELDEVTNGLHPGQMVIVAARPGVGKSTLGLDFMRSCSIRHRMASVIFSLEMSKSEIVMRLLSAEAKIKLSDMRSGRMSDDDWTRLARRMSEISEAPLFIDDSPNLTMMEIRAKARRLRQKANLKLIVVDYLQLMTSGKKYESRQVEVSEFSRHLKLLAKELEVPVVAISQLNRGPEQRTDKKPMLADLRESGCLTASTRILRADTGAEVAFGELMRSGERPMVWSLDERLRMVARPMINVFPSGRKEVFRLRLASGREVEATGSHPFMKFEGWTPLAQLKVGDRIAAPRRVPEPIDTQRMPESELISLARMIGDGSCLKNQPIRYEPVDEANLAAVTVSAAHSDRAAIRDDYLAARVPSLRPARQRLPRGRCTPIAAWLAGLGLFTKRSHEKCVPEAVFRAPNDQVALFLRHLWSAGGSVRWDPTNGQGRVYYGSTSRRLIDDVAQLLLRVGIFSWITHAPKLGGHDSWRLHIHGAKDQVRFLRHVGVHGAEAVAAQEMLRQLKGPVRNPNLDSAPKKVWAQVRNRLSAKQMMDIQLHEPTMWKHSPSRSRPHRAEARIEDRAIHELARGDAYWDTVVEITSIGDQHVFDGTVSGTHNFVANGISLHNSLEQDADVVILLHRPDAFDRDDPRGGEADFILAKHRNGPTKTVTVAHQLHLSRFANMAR

[15] = viability loss in HEK293 cells – cell-based, plate reader, cherry-picked samples, cytotoxicity control, dose response (AID 743446); format: functional
[16] = blockers of bursicon-stimulated LGR2 cAMP reporter – cell-based, HEK293, CRE-luciferase reporter, cherry pick, set 2, dose response (AID 743343); format: functional;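 also: transfected cells were stimulated with diluted bursicon conditioned medium after compound addition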
[17] = Trypanosoma cruzi growth suppression in host cells – NIH3T3 host cells, beta-gal luminescence, confirmation (AID 2044); format: functional, cell-based;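 also: intracellular parasites grown in NIH/3T3 mouse fibroblasts as host cells; luminescent beta-galactosidase reporter signal from transgenic T. cruzi replicating inside host cells; inhibitors lower the luminescence signal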
[18] = biological target: Induced myeloid leukemia cell differentiation protein Mcl-1 (Homo sapiens, UniProt Q07820); format: functional
Aminopeptidase N = biological target: T3, Aminopeptidase N (Plasmodium falciparum FcB1/Columbia, UniProt O96935); experiment: malaria alanyl aminopeptidase activity blockers – biochemical, fluorogenic H-Leu-NHMec substrate, 1536-well (AID 1445); set-up: species or system Plasmodium falciparum 3D7, 3D7
T3 sequence (O96935 whole entry): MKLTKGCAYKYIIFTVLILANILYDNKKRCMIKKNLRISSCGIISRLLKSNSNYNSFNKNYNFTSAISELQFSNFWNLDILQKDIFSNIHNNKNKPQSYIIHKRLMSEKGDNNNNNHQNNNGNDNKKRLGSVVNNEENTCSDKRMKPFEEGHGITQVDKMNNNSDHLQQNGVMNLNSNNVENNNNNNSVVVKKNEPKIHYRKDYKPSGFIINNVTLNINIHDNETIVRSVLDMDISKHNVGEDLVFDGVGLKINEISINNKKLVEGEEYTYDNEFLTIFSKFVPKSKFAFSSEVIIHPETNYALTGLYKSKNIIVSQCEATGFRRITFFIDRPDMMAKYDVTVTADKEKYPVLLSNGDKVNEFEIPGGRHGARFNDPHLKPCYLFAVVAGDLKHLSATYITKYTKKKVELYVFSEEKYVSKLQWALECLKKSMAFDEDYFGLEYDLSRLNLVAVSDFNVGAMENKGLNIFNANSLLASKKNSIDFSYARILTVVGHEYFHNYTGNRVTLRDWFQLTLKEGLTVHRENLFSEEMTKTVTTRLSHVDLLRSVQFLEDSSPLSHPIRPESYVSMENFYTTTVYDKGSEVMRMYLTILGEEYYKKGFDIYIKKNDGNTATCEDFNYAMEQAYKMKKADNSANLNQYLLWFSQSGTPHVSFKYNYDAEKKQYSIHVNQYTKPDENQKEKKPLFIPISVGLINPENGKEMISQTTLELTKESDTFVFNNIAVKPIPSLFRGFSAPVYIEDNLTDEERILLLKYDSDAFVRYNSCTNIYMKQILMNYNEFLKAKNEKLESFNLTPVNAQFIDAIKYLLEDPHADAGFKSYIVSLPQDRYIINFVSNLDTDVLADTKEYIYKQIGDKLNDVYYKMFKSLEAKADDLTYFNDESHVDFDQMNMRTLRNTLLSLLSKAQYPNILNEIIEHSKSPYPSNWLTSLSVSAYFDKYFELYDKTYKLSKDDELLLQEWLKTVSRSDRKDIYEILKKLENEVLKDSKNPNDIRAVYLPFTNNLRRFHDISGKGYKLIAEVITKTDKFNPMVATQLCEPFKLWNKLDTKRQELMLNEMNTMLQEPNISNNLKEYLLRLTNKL

[19] = biological target: T4, Carboxy-terminal domain RNA polymerase II polypeptide A small phosphatase 1 (Homo sapiens, UniProt Q9GZU7); experiment: CTDSP1 inhibitors, concentration-response, biochemical, absorbance readout, ultra-high-throughput screen actives (AID 540297); format: functional
T4 sequence (Q9GZU7 whole entry): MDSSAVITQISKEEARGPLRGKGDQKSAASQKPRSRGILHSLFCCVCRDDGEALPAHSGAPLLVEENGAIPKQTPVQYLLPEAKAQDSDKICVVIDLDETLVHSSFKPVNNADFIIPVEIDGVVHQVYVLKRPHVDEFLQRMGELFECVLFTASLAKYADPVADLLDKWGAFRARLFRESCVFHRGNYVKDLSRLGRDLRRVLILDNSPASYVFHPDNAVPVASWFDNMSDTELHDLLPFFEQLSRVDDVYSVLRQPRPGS

Leucine aminopeptidase = biological target: T5, Leucine aminopeptidase (Plasmodium falciparum 3D7, UniProt Q8IL11); experiment: P. falciparum M17LAP inhibitors, primary screen, biochemical, fluorogenic H-Leu-NHMec substrate, 1536-well (AID 1619); format: functional
T5 sequence (Q8IL11 whole entry): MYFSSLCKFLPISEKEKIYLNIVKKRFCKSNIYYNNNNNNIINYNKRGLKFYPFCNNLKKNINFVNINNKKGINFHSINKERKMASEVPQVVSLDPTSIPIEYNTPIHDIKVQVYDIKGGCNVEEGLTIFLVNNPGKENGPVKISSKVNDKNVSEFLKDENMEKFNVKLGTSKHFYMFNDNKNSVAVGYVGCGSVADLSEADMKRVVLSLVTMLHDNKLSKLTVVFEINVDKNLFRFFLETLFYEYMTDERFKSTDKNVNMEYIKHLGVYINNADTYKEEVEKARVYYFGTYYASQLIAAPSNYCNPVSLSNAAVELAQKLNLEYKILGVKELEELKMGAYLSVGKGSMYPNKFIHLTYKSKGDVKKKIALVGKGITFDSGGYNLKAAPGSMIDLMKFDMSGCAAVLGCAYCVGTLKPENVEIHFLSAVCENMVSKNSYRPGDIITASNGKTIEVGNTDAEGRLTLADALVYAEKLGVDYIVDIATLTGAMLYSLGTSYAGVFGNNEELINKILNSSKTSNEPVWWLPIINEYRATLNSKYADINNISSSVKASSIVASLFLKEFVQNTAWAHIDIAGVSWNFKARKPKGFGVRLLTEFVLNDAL

Chain of Glyceraldehyde-3-phosphate dehydrogenase (P04406 whole entry): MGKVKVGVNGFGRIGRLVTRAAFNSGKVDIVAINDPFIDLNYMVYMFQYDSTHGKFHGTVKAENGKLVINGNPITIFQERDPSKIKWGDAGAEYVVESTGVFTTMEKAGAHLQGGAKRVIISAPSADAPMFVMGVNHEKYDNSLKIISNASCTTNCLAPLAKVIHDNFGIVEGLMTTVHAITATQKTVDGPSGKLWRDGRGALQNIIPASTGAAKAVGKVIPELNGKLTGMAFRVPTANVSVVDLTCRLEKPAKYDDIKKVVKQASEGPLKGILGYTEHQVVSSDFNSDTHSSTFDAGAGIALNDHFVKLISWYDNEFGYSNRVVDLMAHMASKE
Chain of Induced myeloid leukemia cell differentiation protein Mcl-1 (Q07820 whole entry): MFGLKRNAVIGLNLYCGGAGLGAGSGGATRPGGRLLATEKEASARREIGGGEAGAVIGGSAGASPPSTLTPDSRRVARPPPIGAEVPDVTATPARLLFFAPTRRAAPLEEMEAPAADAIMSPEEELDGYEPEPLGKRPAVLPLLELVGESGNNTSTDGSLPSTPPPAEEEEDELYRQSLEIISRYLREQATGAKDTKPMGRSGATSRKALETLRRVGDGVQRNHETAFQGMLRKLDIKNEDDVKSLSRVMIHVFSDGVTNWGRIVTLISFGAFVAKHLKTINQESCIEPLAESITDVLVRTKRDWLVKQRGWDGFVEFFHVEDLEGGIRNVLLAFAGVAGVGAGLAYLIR

CCOC(=O)c1c(C)[nH]c(C)c1C(=O)COC(=O)c1ccc([N+](=O)[O-])s1
IC50 (cells): 8.59 µM (active)

CCOc1ccc(-c2nnc(SCC(=O)Nc3cc(C)on3)o2)cc1
IC50 [1]: > 80 µM (inactive)

O=C(CCC1CCCCC1)Nc1nc[nH]n1
IC50 [2]: > 10 µM (inconclusive)

Cc1c(CCC(=O)N2CCC(C(=O)O)CC2)c(=O)oc2cc3oc4c(c3cc12)CCCC4
IC50 [1]: > 80 µM (inactive)

Cn1cc(C(=O)N/N=C/c2ccc3c(c2)OCO3)c2ccccc21
EC50 [3]: > 120 µM (not active)
EC50 (BJ [4]): 44.9 µM (active)
EC50 [5]: 19.6 µM (active)
EC50 (BJ [6]): > 150 µM (inconclusive)
EC50 (H4): 5.85 µM (active)
EC50 [7]: 5.78 µM (active)
EC50 (BJ [8]): 124 µM (active)

O=C1C(Cl)=C(N2CCN(CCO)CC2)C(=O)N1c1ccnc(Cl)c1
IC50 [2]: > 50 µM (inconclusive)

O=C(COC(=O)c1cc(Br)ccc1O)Nc1ccc2c(c1)OCO2
IC50 (cells): 22.1 µM (active)

O=c1c(Cl)c(Cl)cnn1Cc1nnc(-c2ccc(Cl)cc2)o1
AC50 [9]: 7.83 µM (active)
EC50 (Protein RecA): 2.95 µM (active)
AC50 [10]: 8.01 µM (active)
AC50 [11]: 30.9 µM (active)
EC50 [3]: > 120 µM (not active)
AC50 [12]: 7.33 µM (active)
EC50 [13]: 2.02 µM (active)
EC50 (H4): > 120 µM (not active)
AC50 [14]: 9.97 µM (active)
EC50 [7]: > 120 µM (not active)
AC50 [15]: 8.16 µM (active)
AC50 [16]: 25.3 µM (active)
EC50 [17]: 1.15 µM (active)

COc1cc(OC)cc(C(=O)NNC(=O)C2CCCC2)c1
EC50 (BJ [4]): > 150 µM (not active)
EC50 [5]: > 150 µM (not active)
EC50 (BJ [6]): > 150 µM (not active)
EC50 (BJ [8]): > 150 µM (not active)

Cc1cc(NC(=O)COc2ccccc2)ccc1Cl
IC50 (cells): > 50 µM (active)

CS(=O)(=O)C1=NSC2=NC(=O)/C(=C\c3cccn3-c3ccc(Cl)cc3)C(=N)N21
IC50 [18]: 4.98 µM (active)
IC50 (Aminopeptidase N): 5.15 µM (active)
IC50 [19]: 5.93 µM (active)

CCN(CC)S(=O)(=O)c1ccc(N2CCOCC2)c(NC(=O)c2[nH]c(C)c(C(C)=O)c2C)c1
IC50 [1]: > 80 µM (inactive)

CCOc1ccccc1Nc1nnc(SCC(=O)NC(Cc2c[nH]c3ccccc23)C(=O)O)s1 (configuration not stated)
IC50 (Aminopeptidase N): 67.4 µM (active)
IC50 (Leucine aminopeptidase): 7.81 µM (active)
